Columns and labels:
Assay in all cases: Histone peptide microarray
Type in all cases: binding, human
Conditions in all cases: histone peptide array
MORC3 (CW) = test system: MORC3 (CW)
Summary of the method: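 GST-tagged PHD readers, 0.5 μM, probed on a microarray of 293 synthetic histone peptides carrying single or combinatorial PTMs (optimized Petell protocol). Signals are averaged over 4 replicates and expressed as relative binding.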

DIDO1 = test system: DIDO1
Summary of the method: (§1)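 Using an optimized microarray protocol, purified GST-tagged PHD fingers were incubated at 0.5 μM on 293 histone peptides with single or multiple modifications, and array signal was recorded as the average of 4 replicates.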

TAF3 = test system: TAF3
Summary of the method: as §1

KDM5B (1) = test system: KDM5B (1)
Summary of the method: as §1

AIRE (PP) = test system: AIRE (PP)
Summary of the method: as §1

PHF2 = test system: PHF2
Summary of the method: as §1

PHRF1 (RP) = test system: PHRF1 (RP)
Summary of the method: as §1

KDM5B (3) = test system: KDM5B (3)
Summary of the method: as §1

BPTF (PB) = test system: BPTF (PB)
Summary of the method: as §1

KDM5A (1) = test system: KDM5A (1)
Summary of the method: as §1

ING3 = test system: ING3
Summary of the method: as §1

PHF8 = test system: PHF8
Summary of the method: as §1

MLL5 = test system: MLL5
Summary of the method: as §1

CHD5 (PPCC) = test system: CHD5 (PPCC)
Summary of the method: as §1

PHF23 = test system: PHF23
Summary of the method: as §1

CHD5 (PCC) = test system: CHD5 (PCC)
Summary of the method: as §1

KDM7A = test system: KDM7A
Summary of the method: as §1

ING2 = test system: ING2
Summary of the method: as §1

BAZ2B = test system: BAZ2B
Summary of the method: as §1

KDM4C (TTP) = test system: KDM4C (TTP)
Summary of the method: as §1

KDM5A (3) = test system: KDM5A (3)
Summary of the method: as §1

ING1 = test system: ING1
Summary of the method: as §1

SP140L = test system: SP140L
Summary of the method: as §1

ING5 = test system: ING5
Summary of the method: as §1

DPF2 (PPC2W2) = test system: DPF2 (PPC2W2)
Summary of the method: as §1

TRIM66 (PB) = test system: TRIM66 (PB)
Summary of the method: as §1

RAG2 = test system: RAG2
Summary of the method: as §1

PHF13 = test system: PHF13
Summary of the method: as §1

ING4 = test system: ING4
Summary of the method: as §1

PHF21A = test system: PHF21A
Summary of the method: as §1

CHD4 (PPCC) = test system: CHD4 (PPCC)
Summary of the method: as §1

[1] = sheet "Array Heatmap", GST-tagged reader, total n = 4

H3R2me2s + K4me2: H3 1-20
Array Heatmap signal, MORC3 (CW) (MORC3 (CW); GST-tagged MORC3 (CW = CW-type Zn-finger), arrays performed twice, n of 4): 0.7987
Array Heatmap signal, DIDO1 (DIDO1; GST-tagged DIDO1, arrays performed twice, n of 4): 0.7352
Array Heatmap signal, TAF3 (TAF3; GST-tagged TAF3, arrays performed twice, n of 4): 0.4
Array Heatmap signal, KDM5B (1) (KDM5B (1); GST-tagged KDM5B (1), arrays performed twice, n of 4): 0.7544
Array Heatmap signal, AIRE (PP) (AIRE (PP); GST-tagged AIRE (PP), arrays performed twice, n of 4): 0.4691
Array Heatmap signal, PHF2 (PHF2; GST-tagged PHF2, arrays performed twice, n of 4): 0.597
Array Heatmap signal, PHRF1 (RP) (PHRF1 (RP); GST-tagged PHRF1 (RP), arrays performed twice, n of 4): 0.4714
Array Heatmap signal, KDM5B (3) (KDM5B (3); GST-tagged KDM5B (3), arrays performed twice, n of 4): 0.725
Array Heatmap signal, BPTF (PB) (BPTF (PB); GST-tagged BPTF (PB = PHD + Bromodomain), arrays performed twice, n of 4): 0.3673
Array Heatmap signal, KDM5A (1) (KDM5A (1); GST-tagged KDM5A (1), arrays performed twice, n of 4): 0.4761
Array Heatmap signal, ING3 (ING3; GST-tagged ING3, arrays performed twice, n of 4): 0.5515
Array Heatmap signal, PHF8 (PHF8; GST-tagged PHF8, arrays performed twice, n of 4): 0.5813
Array Heatmap signal, MLL5 (MLL5; GST-tagged MLL5, arrays performed twice, n of 4): 0.5794
Array Heatmap signal, CHD5 (PPCC) (CHD5 (PPCC); GST-tagged CHD5 (PPCC = Dual PHD + Dual Chromodomain), arrays performed twice, n of 4): 0.5636
Array Heatmap signal, PHF23 (PHF23; GST-tagged PHF23, arrays performed twice, n of 4): 0.6298
Array Heatmap signal, CHD5 (PCC) (CHD5 (PCC); GST-tagged CHD5 (PCC = PHD + Dual Chromodomain), arrays performed twice, n of 4): 0.8074
Array Heatmap signal, KDM7A (KDM7A; GST-tagged KDM7A, arrays performed twice, n of 4): 0.4256
Array Heatmap signal, ING2 (ING2; GST-tagged ING2, arrays performed twice, n of 4): 0.6563
Array Heatmap signal, BAZ2B (BAZ2B; GST-tagged BAZ2B, arrays performed twice, n of 4): 0.454
Array Heatmap signal, KDM4C (TTP) (KDM4C (TTP); GST-tagged KDM4C (TTP = Tandem Tudor domain + PHD), arrays performed twice, n of 4): 0.5629
Array Heatmap signal, KDM5A (3) (KDM5A (3); GST-tagged KDM5A (3), arrays performed twice, n of 4): 0.7167
Array Heatmap signal, ING1 (ING1; GST-tagged ING1, arrays performed twice, n of 4): 0.5374
Array Heatmap signal, SP140L (SP140L; GST-tagged SP140L, arrays performed twice, n of 4): 0.3393
Array Heatmap signal, ING5 (ING5; GST-tagged ING5, arrays performed twice, n of 4): 0.3606
Array Heatmap signal, DPF2 (PPC2W2) (DPF2 (PPC2W2); GST-tagged DPF2 (PPC2W2 = Dual PHD + C2W2-type Zn-finger), arrays performed twice, n of 4): 0.6255
Array Heatmap signal, TRIM66 (PB) (TRIM66 (PB); GST-tagged TRIM66 (PB = PHD + Bromodomain), arrays performed twice, n of 4): 0.6465
Array Heatmap signal, RAG2 (RAG2; GST-tagged RAG2, arrays performed twice, n of 4): 0.4992
Array Heatmap signal, PHF13 (PHF13; GST-tagged PHF13, arrays performed twice, n of 4): 0.6897
Array Heatmap signal, ING4 (ING4; GST-tagged ING4, arrays performed twice, n of 4): 0.4666
Array Heatmap signal, PHF21A (PHF21A; GST-tagged PHF21A, arrays performed twice, n of 4): 0.4639
Array Heatmap signal, CHD4 (PPCC) (CHD4 (PPCC); GST-tagged CHD4 (PPCC = Dual PHD + Dual Chromodomain), arrays performed twice, n of 4): 0.5835

H3R2me2s + K4me3 + K9ac + K14ac + K18ac: H3 1-20
Array Heatmap signal, MORC3 (CW) (MORC3 (CW); [1]): 0.4658
Array Heatmap signal, DIDO1 (DIDO1; [1]): 0.6935
Array Heatmap signal, TAF3 (TAF3; [1]): 0.2641
Array Heatmap signal, KDM5B (1) (KDM5B (1); [1]): 0.5889
Array Heatmap signal, AIRE (PP) (AIRE (PP); [1]): 0.3152
Array Heatmap signal, PHF2 (PHF2; [1]): 0.5721
Array Heatmap signal, PHRF1 (RP) (PHRF1 (RP); [1]): 0.3639
Array Heatmap signal, KDM5B (3) (KDM5B (3); [1]): 0.4309
Array Heatmap signal, BPTF (PB) (BPTF (PB); [1]): 0.2994
Array Heatmap signal, KDM5A (1) (KDM5A (1); [1]): 0.3527
Array Heatmap signal, ING3 (ING3; [1]): 0.3864
Array Heatmap signal, PHF8 (PHF8; [1]): 0.402
Array Heatmap signal, MLL5 (MLL5; [1]): 0.5797
Array Heatmap signal, CHD5 (PPCC) (CHD5 (PPCC); [1]): 0.4157
Array Heatmap signal, PHF23 (PHF23; [1]): 0.5367
Array Heatmap signal, CHD5 (PCC) (CHD5 (PCC); [1]): 0.6375
Array Heatmap signal, KDM7A (KDM7A; [1]): 0.2957
Array Heatmap signal, ING2 (ING2; [1]): 0.6168
Array Heatmap signal, BAZ2B (BAZ2B; [1]): 0.3825
Array Heatmap signal, KDM4C (TTP) (KDM4C (TTP); [1]): 0.3487
Array Heatmap signal, KDM5A (3) (KDM5A (3); [1]): 0.5269
Array Heatmap signal, ING1 (ING1; [1]): 0.5042
Array Heatmap signal, SP140L (SP140L; [1]): 0.3075
Array Heatmap signal, ING5 (ING5; [1]): 0.2654
Array Heatmap signal, DPF2 (PPC2W2) (DPF2 (PPC2W2); [1]): 0.5621
Array Heatmap signal, TRIM66 (PB) (TRIM66 (PB); [1]): 0.4734
Array Heatmap signal, RAG2 (RAG2; [1]): 0.309
Array Heatmap signal, PHF13 (PHF13; [1]): 0.4921
Array Heatmap signal, ING4 (ING4; [1]): 0.356
Array Heatmap signal, PHF21A (PHF21A; [1]): 0.377
Array Heatmap signal, CHD4 (PPCC) (CHD4 (PPCC); [1]): 0.4966
